Measurements reported in US20200138824A1, “TREATMENT OF CANCER WITH A PI3K INHIBITOR IN A PATIENT PRESELECTED FOR HAVING A PIK3CA MUTATION IN THE CTDNA” (Novartis AG, priority 2015, published 2020).

Tested on: HR+, HER2-negative locally advanced or metastatic breast cancer
Experiment: Study CBKM120F2302, randomized double-blind placebo-controlled Phase-III trial: buparlisib plus fulvestrant vs. placebo plus fulvestrant
Assay type: in vivo, human
Conditions: Full population
Excerpt: For the Study, patients were selected according to the following inclusions and exclusion criteria:
Inclusion Criteria: • Locally advanced or metastatic breast cancer • HER2-negative and hormone receptor-positive status (common breast cancer classification tests) • Postmenopausal woman • A tumor sample must be shipped to a Novartis designated laboratory for identification of biomarkers (PI3K activation status) • Progression or recurrence of breast cancer while on or after aromatase inhibitor treatment • Measurable disease or non measurable disease bone lesions in the absence of measurable disease as per Response Evaluation Criteria in Solid Tumors 1.1 • Adequate bone marrow and organ function defined by laboratory values
Approximately 1200 patients were to be randomized in a 1:1 ratio. Enrollment was to continue until a minimum of 842 patients were randomized in the main cohort, including ≥334 patients with activated PI3K pathway status. […]
The PI3K pathway activation status was defined based on analysis of archival tumor samples as: • A mutation in the PIK3CA gene in one or more of exons 1, 7, 9, or 20 as assessed by Sanger sequencing, and/or • Loss of phosphotensin homolog (PTEN) expression (<10% of tumor cells expressing PTEN at 1+ level by immunohistochemistry [IHC] and no tumor cells staining with an intensity >1+) […]

For `Nc1cc(C(F)(F)F)c(-c2cc(N3CCOCC3)nc(N3CCOCC3)n2)cn1` [buparlisib, 5-(2,6-di-morpholin-4-yl-pyrimidin-4-yl)-4-trifluoromethyl-pyridin-2-ylamine], the “Overall safety and tolerability profile” value was “consistent with prior experience in single-arm and combination studies and with the class effects of PI3K inhibitors”.
